The structures appear in SMILES notation. Structures can show the parent of a compound that is named as a salt. Where two headings read alike, the source gives them in different places.

Experimental findings from patent US9815831B2, “3,5-disubstituted-3H-imidazo[4,5-B]pyridine and 3,5-disubstituted-3H-[1,2,3]triazolo[4,5-B] pyridine compounds as modulators of c-Met protein kinases” (Rhizen Pharmaceuticals SA, priority 2012, dated 2017) are described below.

Test [1] concerns the target T1, human recombinant Met kinase (Homo sapiens, UniProt P08581).
T1 construct: purchased Cell Signalling Technology, Beverly, Mass
The experiment in a line: Colorimetric determination of c-Met kinase activity (HTScan Met Kinase Assay Kit). The format is biochemical. As to conditions: for inhibition at 0.1 µM: 100 nM (cells without *), read-out: c-Met Enzyme % inhibition @ 100 nM; for inhibition: cells marked *: tested @ 300 nM, read-out: c-Met Enzyme % inhibition. An excerpt: 1. MET Kinase Assay Protocol:
Colorimetric Determination of c-Met Kinase Activity
The receptor tyrosine kinase c-Met is a heterodimeric transmembrane glycoprotein involved in several cellular processes that aid in tumor progression. Phosphorylation of the tyrosine residues in the c-Met kinase domain is critical for its activity and the resulting down-stream effects. The colorimetric assay allows detection of the phosphorylated form of a biotinylated peptide upon activation of human recombinant Met kinase.
MET Kinase Assay Protocol:
c-Met Kinase activity shall be determined using an HTScan® Met Kinase Assay Kit (Cell Signalling Technology, Beverly, Mass.) with modifications. All incubations are carried out at room temperature. Briefly, 12.5 μl of a 4× reaction cocktail (DTT/Kinase buffer containing appropriate quantity of human Met kinase) is added to each well of a 96-well plate containing 12.5 μl pre-diluted compound of interest and incubated for 5 minutes. After the initial incubation, 25 μl/well of 2×ATP/biotinylated peptide is added and incubated for an additional 30 minutes. The reaction is terminated by the addition of 50 μl/well stop buffer (50 mM EDTA, pH 8.0). The reaction mixture (25 μl/well) is then transferred to a streptavidin coated plate (Perkin Elmer, Cat#4009-0010) containing 75 μl dH2O and incubated for 60 minutes. The plate is washed with 200 μl/well wash buffer (1×PBS, 0.05% Tween-20). After washing, 100 μl/well phospho-tyrosine mAb (1:1000 in wash buffer containing 1% BSA) is added and incubated for 60 minutes. After another round of washes, 100 μl/well europium labelled anti-mouse IgG (1:500 in wash buffer containing 1% BSA) is added and incubated for an additional 30 minutes. Following additional washes, 100 μl/well Delfia^(R) enhancement solution (Perkin Elmer, Cat#1244-105) is added and incubated for 45 minutes. Florescence is measured on a microplate reader (BMG Labtech., Germany) at 340 nm (excitation) and 615 nm (emission) for calculating % inhibition. Data generated can be analyzed further using Graphpad Prism (Graphpad software, San Diego Calif.) for determination of IC50.
Results: The results are as given below in Table 4A, 4B and 4C as % Inhibition or IC50 of c-Met

Test [2] has as its system MKN-45. The test is described as follows: Inhibition of MKN-45 proliferation (MTT). The format is cell-based, human. To be noted: MKN-45 proliferation; for GI50: read-out: MKN45 GI50. On the procedure: 3. Inhibition of MKN-45 Proliferation:
Cell proliferation assays were carried out using the high Met expressing human gastric adenocarcinoma cell line, MKN-45, according to the following schedule: • Day 1: Cells were plated in 96-well plates in complete growth medium. • Day 2: Compounds at desired concentrations were added. • Day 5: Cell viability was determined using the 3-[4,5-dimethylthiazol-2-yl]-2,5-diphenyltetrazolium bromide (MTT) dye reduction test. Results: The results are as given as % Inhibition of MKN-45 proliferation at 100 nM and GI50 values in Table 4A to 4C above. 4. Inhibition of c-Met Kinase Phosphorylation in MKN-45 Cells: […]

T1 sequence (P08581 25-1390): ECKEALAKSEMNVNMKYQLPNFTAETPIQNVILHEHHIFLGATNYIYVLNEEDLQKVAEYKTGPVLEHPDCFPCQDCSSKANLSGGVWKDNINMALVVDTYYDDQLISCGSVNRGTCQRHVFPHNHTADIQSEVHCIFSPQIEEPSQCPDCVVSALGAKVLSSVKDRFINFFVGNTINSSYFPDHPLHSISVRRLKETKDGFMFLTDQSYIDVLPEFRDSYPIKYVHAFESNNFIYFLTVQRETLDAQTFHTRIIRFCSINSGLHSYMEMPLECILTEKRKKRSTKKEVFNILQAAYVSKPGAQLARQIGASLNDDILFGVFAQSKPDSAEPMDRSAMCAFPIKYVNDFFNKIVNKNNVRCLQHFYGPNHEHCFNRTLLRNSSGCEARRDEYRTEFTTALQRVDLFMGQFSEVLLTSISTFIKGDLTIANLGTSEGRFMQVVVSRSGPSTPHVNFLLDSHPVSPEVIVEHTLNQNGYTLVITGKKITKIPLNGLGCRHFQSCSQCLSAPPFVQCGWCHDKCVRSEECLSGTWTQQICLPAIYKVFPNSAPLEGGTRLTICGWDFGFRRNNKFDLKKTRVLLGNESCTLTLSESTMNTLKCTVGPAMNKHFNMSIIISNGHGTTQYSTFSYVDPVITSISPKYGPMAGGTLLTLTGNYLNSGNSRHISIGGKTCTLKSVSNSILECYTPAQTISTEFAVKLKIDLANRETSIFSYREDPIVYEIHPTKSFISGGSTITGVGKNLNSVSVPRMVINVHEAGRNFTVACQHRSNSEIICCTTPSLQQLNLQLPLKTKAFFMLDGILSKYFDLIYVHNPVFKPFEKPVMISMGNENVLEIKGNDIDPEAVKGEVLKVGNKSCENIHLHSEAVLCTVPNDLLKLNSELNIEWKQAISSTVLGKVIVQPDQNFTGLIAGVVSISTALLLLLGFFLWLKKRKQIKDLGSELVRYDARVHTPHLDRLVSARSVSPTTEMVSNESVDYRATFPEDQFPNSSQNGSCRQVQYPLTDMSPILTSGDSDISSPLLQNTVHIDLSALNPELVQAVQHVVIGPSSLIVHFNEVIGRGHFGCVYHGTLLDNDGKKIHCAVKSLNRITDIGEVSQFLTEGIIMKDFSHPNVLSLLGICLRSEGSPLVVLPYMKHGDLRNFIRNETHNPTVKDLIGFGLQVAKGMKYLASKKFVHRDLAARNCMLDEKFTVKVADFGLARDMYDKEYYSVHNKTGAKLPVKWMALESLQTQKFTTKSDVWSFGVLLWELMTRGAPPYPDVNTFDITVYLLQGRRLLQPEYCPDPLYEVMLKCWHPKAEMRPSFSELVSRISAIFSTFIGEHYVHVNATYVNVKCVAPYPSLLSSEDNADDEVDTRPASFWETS

Take `C/C(=N\OCCNC(N)=O)c1ccc2nnn(Cc3ccc4ncccc4c3)c2n1` [Example 64, 1-(2-(1-(3-(quinolin-6-ylmethyl)-3H-[1,2,3]triazolo[4,5-b]pyridin-5-yl)ethylideneaminooxy)ethyl)urea]: the inhibition at 0.1 µM in test [1] (Table 4A) was 50 to 75%.
In the case of `Cl.O=C(NOCCO)c1c(F)cc(-c2ccc3nnn(Cc4cc5cccnc5cc4F)c3n2)cc1F` [Example 9a, 2,6-difluoro-4-(3-((7-fluoroquinolin-6-yl)methyl)-3H-[1,2,3]triazolo[4,5-b]pyridin-5-yl)-N-(2-hydroxyethoxy)benzamide hydrochloride], in test [2] (Table 4A), the “MKN45 % inhibition @ 100 nM” value is recorded as “A (A= ≧75 to 100%)”. In addition, the GI50 in test [2] (Table 4A, hydrochloride) lay in the range of 25 to 50 nM.
On to `C/C(=N\N1CC(=O)NC1=O)c1ccc2nnn(Cc3ccc4ncccc4c3)c2n1` [Example 54, (E/Z)-1-(1-(3-(quinolin-6-ylmethyl)-3H-[1,2,3]triazolo[4,5-b]pyridin-5-yl)ethylideneamino)imidazolidine-2,4-dione], for which the inhibition in test [1] (Table 4A) was 25 to 50%.
On the same count and under the same terms, for `NC(=O)N/N=C(\N)c1ccc2nnn(Cc3ccc4ncccc4c3)c2n1` [Example 52, 2-(amino(3-(quinolin-6-ylmethyl)-3H-[1,2,3]triazolo[4,5-b]pyridin-5-yl)methylene)hydrazinecarboxamide] the value was less than 25%.
As for `CNC(=O)CNC(=O)c1ccc(-c2ccc3nnn(Cc4ccc5ncccc5c4)c3n2)cc1` [Example 2, N-(2-(methylamino)-2-oxoethyl)-4-(3-(quinolin-6-ylmethyl)-3H-[1,2,3]triazolo[4,5-b]pyridin-5-yl)benzamide], the GI50 in test [2] (Homo sapiens, MKN-45, Table 4A) lay in the range of 100 to 250 nM.
In the case of `Cc1cc(-c2ccc3nnn(Cc4ccc5ncccc5c4)c3n2)ccc1C(=O)NOCCOC(=O)C(C)C` [Example 44, 2-(2-methyl-4-(3-(quinolin-6-ylmethyl)-3H-[1,2,3]triazolo[4,5-b]pyridin-5-yl)benzamidooxy)ethyl isobutyrate], the inhibition at 0.1 µM in test [1] (Table 4A) lay in the range of 75 to 100%.
The same measure, in the same setting: the result for `CC(=O)OCCONC(=O)c1ccc(-c2ccc3nnn(Cc4ccc5ncccc5c4)c3n2)cc1C` [Example 43, 2-(2-methyl-4-(3-(quinolin-6-ylmethyl)-3H-[1,2,3]triazolo[4,5-b]pyridin-5-yl)benzamidooxy)ethyl acetate] reads 75 to 100%.
As for `NC(=O)c1c(F)cc(-c2ccc3nnn(Cc4ccc5c(ccc[n+]5[O-])c4)c3n2)cc1F` [Example 1001, 6-((5-(4-carbamoyl-3,5-difluorophenyl)-3H-[1,2,3]triazolo[4,5-b]pyridin-3-yl)methyl)quinoline 1-oxide], in test [1] (Table 4C), the inhibition at 0.1 µM is less than 25%.
With `CC(C)(O)CONC(=O)c1ccc(-c2ccc3ncn(Cc4ccc5ncccc5c4)c3n2)cc1Cl` [Example 114, 2-Chloro-N-(2-hydroxy-2-methyl-propoxy)-4-(3-quinolin-6-ylmethyl-3H-imidazo[4,5-b]pyridin-5-yl)-benzamide], the inhibition at 0.1 µM in test [1] (Table 4B) lay within 75 to 100%.
The same measure, in the same setting: the result for `O=C(NOCCO)c1ccc(-c2ccc3ncn(Cc4ccc5ncccc5c4)c3n2)cc1Cl` [Example 113, 2-Chloro-N-(2-hydroxy-ethoxy)-4-(3-quinolin-6-ylmethyl-3H-imidazo[4,5-b]pyridin-5-yl)-benzamide] reads 75 to 100%.
For the compound `Cc1cc(-c2ccc3nnn(Cc4ccc5[nH]c(=O)ccc5c4)c3n2)ccc1C(=O)NOCC(C)(C)O` [Example 37, N-(2-hydroxy-2-methylpropoxy)-2-methyl-4-(3-((2-oxo-1,2-dihydroquinolin-6-yl)methyl)-3H-[1,2,3]triazolo[4,5-b]pyridin-5-yl)benzamide], in test [1] (Table 4A), the inhibition at 0.1 µM lay in the range of 50 to 75%.
Regarding `O=C1NCc2cc(-c3ccc4ncn(Cc5ccc6ncccc6c5)c4n3)ccc21` [Example 1033, 5-(3-Quinolin-6-ylmethyl-3H-imidazo[4,5-b]pyridin-5-yl)-2,3-dihydro-isoindol-1-one], in test [1] (Table 4C), the inhibition at 0.1 µM was less than 25%.
For `Cl.O=C(NOCCO)c1ccc(-c2ccc3nnn(Cc4cc5cccnc5cc4F)c3n2)cc1Cl` [Example 7a, 2-chloro-4-(3-((7-fluoroquinolin-6-yl)methyl)-3H-[1,2,3]triazolo[4,5-b]pyridin-5-yl)-N-(2-hydroxyethoxy)benzamide hydrochloride], the “MKN45 % inhibition @ 100 nM” value in test [2] (Table 4A) was “A (A= ≧75 to 100%)”.
Consider `NC(=O)c1c(F)cc(-c2ccc3nnn(Cc4ccc5[nH]c(=O)ccc5c4)c3n2)cc1F` [Example 1005, 2,6-difluoro-4-(3-((2-oxo-1,2-dihydroquinolin-6-yl)methyl)-3H-[1,2,3]triazolo[4,5-b]pyridin-5-yl)benzamide], for which, in test [1] (Table 4C), the inhibition at 0.1 µM was less than 25%.
Turning to `CN(C)CCCNC(=O)c1ccc(-c2ccc3nnn(Cc4ccc5ncccc5c4)c3n2)cc1` [Example 68, N-(3-Dimethylamino-propyl)-4-(3-quinolin-6-ylmethyl-3H-[1,2,3]triazolo[4,5-b]pyridin-5-yl)-benzamide dihydrochloride], in test [1] (Table 4A), the inhibition at 0.1 µM lay within 75 to 100%.
For the compound `CCNC(=S)N/N=C(\C)c1ccc2nnn(Cc3ccc4ncccc4c3)c2n1` [Example 55, N-ethyl-2-(1-(3-(quinolin-6-ylmethyl)-3H-[1,2,3]triazolo[4,5-b]pyridin-5-yl)ethylidene)hydrazinecarbothioamide], the inhibition in test [1] (Table 4A) was less than 25%.
Regarding `Cc1cc(-c2ccc3nnn(Cc4ccc5[nH]c(=O)ccc5c4)c3n2)ccc1C(=O)NOCCO` [Example 25d, N-(2-hydroxyethoxy)-2-methyl-4-(3-((2-oxo-1,2-dihydroquinolin-6-yl)methyl)-3H-[1,2,3]triazolo[4,5-b]pyridin-5-yl) benzamide], the inhibition at 0.1 µM in test [1] (Table 4A) was less than 25%.
As for `NC(=O)c1c(F)cc(-c2ccc3ncn(Cc4ccc5ncccc5c4)c3n2)cc1F` [Example 1010, 2,6-difluoro-4-(3-(quinolin-6-ylmethyl)-3H-imidazo[4,5-b]pyridin-5-yl) benzamide], the inhibition in test [1] (Table 4C) is less than 25%.
As to `Cc1cc(-c2ccc3nnn(Cc4ccc5ncccc5c4)c3n2)ccc1C(=O)NOCCOC(=O)C(C)(C)C` [Example 45, 2-(2-methyl-4-(3-(quinolin-6-ylmethyl)-3H-[1,2,3]triazolo[4,5-b]pyridin-5-yl)benzamidooxy)ethyl pivalate], the inhibition at 0.1 µM in test [1] (Table 4A) was 75 to 100%.
In the case of `Cc1cc(-c2ccc3nnn(Cc4ccc5ncccc5c4)c3n2)ccc1C(=O)NOCCO` [Example 25a, N-(2-hydroxyethoxy)-2-methyl-4-(3-(quinolin-6-ylmethyl)-3H-[1,2,3]triazolo[4,5-b]pyridin-5-yl)benzamide hydrochloride], in test [2] (Table 4A, hydrochloride, 0.1 µM), the “MKN45 % inhibition @ 100 nM” value is “B (B = ≧50-<75%)”.
In the case of `CN(C)CCNC(=O)c1ccc(-c2ccc3ncn(Cc4ccc5ncccc5c4)c3n2)cc1Cl` [Example 101, 2-chloro-N-(2-(dimethylamino)ethyl)-4-(3-(quinolin-6-ylmethyl)-3H-imidazo[4,5-b]pyridin-5-yl)benzamide], the inhibition in test [1] (Table 4B) was less than 25%.
On to `Cc1cc(-c2ccc3nnn(Cc4ccc5ncccc5c4)c3n2)ccc1C(=O)NOCCOC(=O)c1ccco1` [Example 47, 2-(2-methyl-4-(3-(quinolin-6-ylmethyl)-3H-[1,2,3]triazolo[4,5-b]pyridin-5-yl)benzamidooxy)ethyl furan-2-carboxylate], for which the inhibition at 0.1 µM in test [1] (Table 4A) is 75 to 100%.
Regarding `CCNC(=O)c1ccc(-c2ccc3ncn(Cc4ccc5ncccc5c4)c3n2)cc1Cl` [Example 1013, 2-chloro-N-ethyl-4-(3-(quinolin-6-ylmethyl)-3H-imidazo[4,5-b]pyridin-5-yl)benzamide], in test [1] (Table 4C), the inhibition is less than 25%.
As for `Cl.O=C(NOCCO)c1c(F)cc(-c2ccc3nnn(Cc4ccc5ncccc5c4)c3n2)cc1F` [Example 8a, 2,6-difluoro-N-(2-hydroxyethoxy)-4-(3-(quinolin-6-ylmethyl)-3H-[1,2,3]triazolo[4,5-b]pyridin-5-yl)benzamide hydrochloride], the “MKN45 % inhibition @ 100 nM” value in test [2] (Table 4A) is “C (C = ≧25-<50%)”.

As a reminder, the inhibition is the drop in the measured response relative to a control, in per cent. The term GI50 denotes the concentration giving 50% growth inhibition.
